These results are taken from patent US20130295083A1, “2a-Methyl-19-nor-(20S)-1a,25-dihydroxyvitamin D3 (2AMD) or 2 methylene-19-nor-(20S)-1a,25-dihydroxyvitamin D3 (2MD) Support Survival and Function of Transplanted Islet Cells In Type 1 Diabetes” (Wisconsin Alumni Research Foundation, priority 2012, published 2013).

Where only a bound is given, the exact number is not on record here.

Data set [1] deals with Female NOD mice. As to the kind of experiment: Islet transplantation in spontaneously diabetic NOD mice: duration of normoglycemia / graft survival. Format: in vivo. The note with it: for Duration of Normoglycemia: 2 mice; for diabetes reversal / indefinite survival of syngeneic islet grafts: 400 pg/mouse/day.
For data set [2], the system named is insulin-2 knockout non-obese diabetic mouse. The note with it: rodent model of spontaneous T1D; Kiekhaefer et al. 2011; cited from earlier work.
Data set [3] can be described thus: Adverse effects: food consumption, weight gain, body weights in transplanted NOD mice. The data set is classed as in vivo. The procedure: (§1) Mice were treated with either 400 picograms of 2AMD/mouse/day or with vehicle. 2AMD was administered by addition of the analog in the vehicle to LabDiet 5K52 (PMI Nutrition, Brentwood, Miss.). In order to deliver the designated dose of 2AMD, a stock solution of the analog was dissolved in EtOH, vortexed for 3 min, and the analog concentration was determined by spectrophotometry. Based on pre-determined diet consumption, diet was prepared to provide 400 pg of 2AMD/mouse/day. The diets were solidified with molten agar (USB Corporation, Cleveland, Ohio). Controls were fed diet prepared as described above but the vehicle containing no 2AMD. Mice in each group were fed either 2AMD diet or vehicle diet from the day of diabetes determination until the completion of the study.

The nature of data set [4]: Serum calcium analysis in transplanted NOD mice. The data set is classed as in vivo. The note with it: 400 pg/day. The procedure:
as §1
Blood was collected from the orbital sinus 3 weeks after initiation of control or 2AMD treatment and every 3 weeks thereafter. Blood samples were spun at 2,938 g for 15 min, followed by a second and third spin at 16,883 g, each for 2 min. Serum calcium levels were determined by atomic absorption in 0.1% LaCl3.

[5] abbreviates: chow-based diet, 800 islet equivalents.
[6] abbreviates: purified diet, 400 islet equivalents.

“2α-methyl-19-nor-(20S)-1α,25-dihydroxyvitamin D3 [2AMD]”: the “Duration of Normoglycemia” value in data set [1] (chow diet, 400 islet equivalents, 400 pg 2AMD/mouse/day, vehicle control 28 days) is at least 83 days; in data set [1] (chow-based diet, 800 islet equivalents, 400 pg 2AMD/mouse/day in diet, vehicle control 110 days), over 230 days. Besides, the diabetes reversal in data set [1] (setting [5]) and in data set [1] (setting [6]) was 100% in each case. For the same substance, the “indefinite survival of syngeneic islet grafts” value in data set [1] (setting [5]) and in data set [1] (setting [6]) was 100% each time. Moreover, the “additional days of continuing normoglycemia compared to the untreated control” value in data set [1] (murine model, 2AMD treatment vs untreated control) is given as “at least 130 days”. In addition, in data set [2], the “effect on development of type 1 diabetes” value is on record as “prevented the transition from insulitis to diabetes”. In addition, the “adverse effects as revealed by food consumption, weight gain and comparative body weights” value in data set [3] (400 pg/day, chow-based diet, 800 islet equivalents) is “No adverse effects”. Moreover, in data set [3] (2AMD purified diet group, 400 islet equivalents, attributed to hydration of two dietary components (early satiety), reversed after replacement at week 22), the “food consumption, weight gain, and comparative body weights” value was “reduced”. The average serum calcium came to 10.7 mg/dL in data set [4] (chow diet, 400 islet equivalents, control 10.0 mg/dl); 10.3 mg/dL in data set [4] (chow-based diet, 800 islet equivalents, control mice 9.8 mg/dl); 10.8 mg/dL in data set [4] (purified diet, 400 islet equivalents, control 10.0 mg/dl).
